Molecular target: human CSNK1A1 (Homo sapiens (Human), UniProt P48729)
Test: CSNK1A1 Assay 2 (ADP-Glo, 1 μM ATP)
Format: biochemical
Settings: median, Table 2, read-out: CSNK1A1 Assay 2 IC50 [mol/l] (median)
Procedure: CSNK1A1-inhibitory activity of compounds of the present invention in presence of 1 μM adenosine-tri-phosphate (ATP) was quantified employing the CSNK1A1 assay as described in the following paragraphs. In essence, the enzyme activity is measured by quantification of the adenosine-di-phosphate (ADP), which is generated as a co-product of the enzyme reaction, via the “ADP-Glo™ Kinase Assay” kit from the company Promega. This detection system works as follows: In a first step the ATP not consumed in the kinase reaction is quantitatively converted to cAMP employing an adenylate cyclase (“ADP-Glo-reagent”), then the adenylate cyclase is stopped and the ADP generated in the kinase reaction converted to ATP which generates in a luciferase-based reaction a glow-luminescence signal (“Kinase Detection Reagent”).
Recombinant fusion protein of N-terminal Glutathion-S-Transferase (GST) and full-length human CSNK1A1, expressed by baculovirus infected insect cells and purified via Glutathion affinity chromatography, was purchased from Life Technologies (product no. PV4174) and used as enzyme. As substrate for the kinase reaction the biotinylated peptide biotin-Ahx-KRRRAL-pS-VASLPGL (C-terminus in amide form) was used which can be purchased e.g. from the company Biosyntan (Berlin-Buch, Germany).
For the assay 50 nl of a 100 fold concentrated solution of the test compound in DMSO was pipetted into a white 1536-well microtiter plate (Greiner Bio-One, Frickenhausen, Germany), 2 μL of a solution of CSNK1A1 in aqueous assay buffer [50 mM HEPES pH 7.5, 10% (v/v) glycerol, 10 mM MgCl2, 50 mM NaCl, 1 mM dithiothreitol, 0.01% (w/v) bovine serum albumin, 0.01% (v/v) Triton X-100] were added and the mixture was incubated for 15 min at 22° C. to allow pre-binding of the test compounds to the enzyme before the start of the kinase reaction. Then the kinase reaction was started by the addition of 3 μL of a solution of ATP (1.67 μM=>final conc. in the 5 μL assay volume is 1 μM) and peptide substrate (50 μM=>final conc. in the 5 μL assay volume is 30 μM) in assay buffer and the resulting mixture was incubated for a reaction time of 30 min at 22° C. The concentration of CSNK1A1 was adjusted depending of the activity of the enzyme lot and was chosen appropriate to have the assay in the linear range, a typical concentrations are about 0.0375 ng/μL. The reaction was stopped by the addition of 2.5 μL of “ADP-Glo-reagent” (1:1.5 fold diluted with water) and the resulting mixture was incubated at 22° C. for 1 h to convert the ATP not consumed in the kinase reaction completely […]. Subsequently 2.5 μL of the “kinase detection reagent” (1.2 fold more concentrated than recommended by the producer) were added, the resulting mixture was incubated at 22° C. for 1 h and then the luminescence measured with a suitable measurement instrument (e.g. Viewlux™ from Perkin-Elmer). The amount of emitted light was taken as a measure for the amount of ADP generated and thereby for the activity of the CSNK1A1.
The data were normalised (enzyme reaction without inhibitor=0% inhibition, all other assay components but no enzyme=100% inhibition).

human CSNK1A1, sequence (P48729 whole entry): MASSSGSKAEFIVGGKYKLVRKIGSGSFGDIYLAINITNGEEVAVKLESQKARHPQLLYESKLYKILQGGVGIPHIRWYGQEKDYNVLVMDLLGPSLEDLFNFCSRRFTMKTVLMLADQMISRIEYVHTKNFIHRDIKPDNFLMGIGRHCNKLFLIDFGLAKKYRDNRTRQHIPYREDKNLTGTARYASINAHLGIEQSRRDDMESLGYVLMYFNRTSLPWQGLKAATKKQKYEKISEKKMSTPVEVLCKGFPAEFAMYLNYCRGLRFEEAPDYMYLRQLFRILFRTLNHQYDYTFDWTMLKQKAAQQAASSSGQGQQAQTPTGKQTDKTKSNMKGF

Compound: CN1CC(CC(F)(F)F)c2[nH]c(-c3ccnc(NC(=O)Cc4ccc(F)cc4)c3)c(Nc3ccccc3)c2C1=O (racemic) [Example 14, N-{4-[3-anilino-5-methyl-4-oxo-7-(2,2,2-trifluoroethyl)-4,5,6,7-tetrahydro-1H-pyrrolo[3,2-c]pyridin-2-yl]pyridin-2-yl}-2-(4-fluorophenyl)acetamide]
- IC50: 3.1 nM

Compound: CCC1CNC(=O)c2c1[nH]c(-c1ccnc(NC(=O)C(CC(F)F)c3ccc(F)cc3)c1)c2Nc1ccccc1 (stereo not shown) [Example 4, N-{4-[3-anilino-7-ethyl-4-oxo-4,5,6,7-tetrahydro-1H-pyrrolo[3,2-c]pyridin-2-yl]pyridin-2-yl}-4,4-difluoro-2-(4-fluorophenyl)butanamide]
- IC50: 16 nM

Compound: CCC1CNC(=O)c2c1[nH]c(-c1ccnc(NC(=O)Cc3ccc(F)cc3)c1)c2Nc1ccccc1 (single isomer, unassigned) [Example 2, N-{4-[3-anilino-7-ethyl-4-oxo-4,5,6,7-tetrahydro-1H-pyrrolo[3,2-c]pyridin-2-yl]pyridin-2-yl}-2-(4-fluorophenyl)acetamide]
- IC50: 3.3 nM

Compound: O=C1N[C@@H]2CCC[C@@H]2c2[nH]c(-c3ccnc(NC(=O)C(CC(F)F)c4ccc(F)cc4)c3)c(Nc3ccccc3)c21 (single isomer, unassigned; (-)) [Example 23, (−)-(2R or S)—N-{4-[cis-3-anilino-4-oxo-1,4,5,5a,6,7,8,8a-octahydrocyclopenta[b]pyrrolo[2,3-d]pyridin-2-yl]pyridin-2-yl}-4,4-difluoro-2-(4-fluorophenyl)butanamide]
- IC50: 24 nM

Compound: O=C1N[C@@H]2CCC[C@@H]2c2[nH]c(-c3ccnc(NC(=O)C(CC(F)F)c4ccc(F)cc4)c3)c(Nc3ccccc3)c21 (single isomer, unassigned; (-)) [Example 24, (−)-(2R or S)—N-{4-[cis-3-anilino-4-oxo-1,4,5,5a,6,7,8,8a-octahydrocyclopenta[b]pyrrolo[2,3-d]pyridin-2-yl]pyridin-2-yl}-4,4-difluoro-2-(4-fluorophenyl)butanamide]
- IC50: 30 nM

Compound: Cc1cn(C)c(=O)c2c(Nc3ccccc3)c(-c3ccnc(NC(=O)C(C)c4ccc(F)cc4)c3)[nH]c12 (single isomer, unassigned) [Example 41, N-[4-(3-anilino-5,7-dimethyl-4-oxo-4,5-dihydro-1H-pyrrolo[3,2-c]pyridin-2-yl)pyridin-2-yl]-2-(4-fluorophenyl)propanamide]
- IC50: 100 nM

Compound: CCC1CNC(=O)c2c1[nH]c(-c1ccnc(NC(=O)Cc3ccc(F)cc3)c1)c2Nc1ccccc1 (racemic) [Example 1, N-{4-[3-anilino-7-ethyl-4-oxo-4,5,6,7-tetrahydro-1H-pyrrolo[3,2-c]pyridin-2-yl]pyridin-2-yl}-2-(4-fluorophenyl)acetamide]
- IC50: 1.5 nM

Compound: CC1CN(C)C(=O)c2c1[nH]c(-c1ccnc(NC(=O)Cc3ccc(F)cc3)c1)c2Nc1ccccc1 (single isomer, unassigned; (-)) [Example 7, (−)-N-{4-[3-anilino-5,7-dimethyl-4-oxo-4,5,6,7-tetrahydro-1H-pyrrolo[3,2-c]pyridin-2-yl]pyridin-2-yl}-2-(4-fluorophenyl)acetamide]
- IC50: 5.5 nM

Compound: CN1CC(CC(F)F)c2[nH]c(-c3ccnc(NC(=O)Cc4ccc(F)cc4)c3)c(Nc3ccccc3)c2C1=O (racemic) [Example 42, N-{4-[3-anilino-7-(2,2-difluoroethyl)-5-methyl-4-oxo-4,5,6,7-tetrahydro-1H-pyrrolo[3,2-c]pyridin-2-yl]pyridin-2-yl}-2-(4-fluorophenyl)acetamide]
- IC50: 1.8 nM

Compound: Cc1cn(C)c(=O)c2c(Nc3ccccc3)c(-c3ccnc(NC(=O)C(C)c4ccc(F)cc4)c3)[nH]c12 (racemic) [Example 39, N-[4-(3-anilino-5,7-dimethyl-4-oxo-4,5-dihydro-1H-pyrrolo[3,2-c]pyridin-2-yl)pyridin-2-yl]-2-(4-fluorophenyl)propanamide]
- IC50: 51 nM
